Measured values from paper PMC3098207 (Malaria Journal, 2011).
Where two headings read alike, the source gives them in different places.

Tests used:
[1] = Population pharmacokinetics of oral AS and its metabolite DHA in pregnant and non-pregnant women (NONMEM parent-metabolite model); assay type: in vivo, human
Source text: Women presenting for prenatal care at the clinic were screened for study eligibility if they were between 18 and 40 years of age and at less than 22 weeks gestation, determined by last menstrual period. Women confirmed by ultrasound to be between 8 to 21 weeks gestation (inclusive) were invited to be participants in the study. Women were asked to return between 22 to 26 weeks gestation for screening and enrollment; women not enrolled at 22 to 26 weeks were screened again at 32 to 36 weeks gestation. A cohort of non-pregnant female controls was also enrolled. At the time of enrollment, both the pregnant and non-pregnant subjects had asymptomatic Plasmodium falciparum parasitaemia, with a parasite density between 200 and 300,000 parasite/μL, were HIV seronegative, and were without anaemia (haematocrit >30%) or other major medical problems (e.g. chronic hypertension, diabetes, etc.). Plasmodium falciparum parasite density was assessed though Giemsa staining of thick and thin blood films; slide-positive infections were later PCR-confirmed using DNA extracted from dried blood spots [8].
Blood sampling schedule and sample handling were uniformly applied for pregnant, postpartum, and control subjects. Blood samples were collected in pre-chilled tubes containing potassium oxalate/sodium fluoride. Following collection, tubes were placed on wet ice; within 5 minutes of collection, samples were centrifuged. Immediately following centrifugation, plasma was removed from the cells and transferred into cryovials. The plasma samples were transferred to liquid nitrogen until they could be frozen at or below -80°C in a laboratory freezer; samples were later shipped on dry ice to the Clinical Pharmacokinetics Laboratory at the College of Pharmacy, University of Iowa, where they were stored at -80°C until drug analysis was performed.
The reconstituted extracts were chromatographed isocratically. Mass spectroscopy in positive ion mode was used to detect and quantify the compounds.
Nonlinear mixed effects model building was conducted using NONMEM software version 7 (ICON Development Solutions, Ellicott City, MD) [10] implemented on a Windows XP operating system (Microsoft Corporation, Seattle, WA) with a G95 Fortran compiler (Free Software Foundation, Boston, MA). Monte Carlo importance sampling expectation maximization with interaction (IMP INTER) estimation method was used to fit models. Pdx-Pop 4.0 (ICON Development Solutions, Ellicott City, MD) and Xpose version 4.1.0 (Uppsala University, Uppsala, Sweden) [11] were used in processing NONMEM 7 output. Plots were generated with TIBCO Spotfire S+ version 8.1 (TIBCO Software Inc., Palo Alto, CA) and R version 2.10.0 (Free Software Foundation, Boston, MA).
Simultaneous models were implemented using ADVAN 5.

[2] = set-up: method as in McGready et al 5; details: pregnant women (2nd or 3rd trimester), adjusted for median weight 50 kg, ref McGready et al 5, cited from earlier work
[3] = set-up: method as in Teja-Isavadharm et al 30; details: oral AS, non-pregnant patients with falciparum malaria, non-compartmental, range 0.70 - 2.70 L/kg; ref Teja-Isavadharm et al 30; cited from earlier work
[4] = set-up: method as in Newton et al 31; details: oral AS, acute falciparum malaria patients, 95% CI 1.02 - 1.64; ref Newton et al 31; cited from earlier work
[5] = weak acid; cited from earlier work
[6] = free acid form of AS; cited from earlier work
[7] = interindividual variability, final model

SMILES: C[C@H]1[C@@H](O)O[C@@H]2O[C@@]3(C)CC[C@H]4[C@H](C)CC[C@@H]1[C@@]24OO3 [DHA, dihydroartemisinin]
- RV - variance (residual variability), bootstrap mean (95% CI) ([1]; additive model for log-transformed plasma concentrations, 1000 bootstrap runs): 0.174 (0.129-0.226)
- RV - variance (residual variability), estimate ([1]; additive model for log-transformed plasma concentrations, final model): 0.174
- CLM/F apparent clearance of DHA, bootstrap mean (95% CI) ([1]; after 200 mg oral AS, 1000 bootstrap runs, value without the pregnancy covariate (non-pregnant)): 64.2 (55.1-75.2) L/h
- DHA volume of distribution adjusted for the median weight of the pregnancy and control groups ([1]; after 200 mg oral AS, current analysis): 1.58 L/kg
- CLM/F: apparent clearance of DHA, estimate ([1]; after 200 mg oral AS, final model NONMEM estimate, value without the pregnancy covariate (non-pregnant)): 64.0 L/h
- Vd/F ([1]; female, human, plasma, po, 200 mg, after 200 mg oral AS, 1000 bootstrap runs, read-out: V3/F apparent volume of distribution of DHA, bootstrap mean (95% CI)): 92.1 L
- Vd/F ([1]; female, human, plasma, po, 200 mg, after 200 mg oral AS, final model NONMEM estimate, read-out: V3/F: apparent volume of distribution of DHA, estimate): 91.4 L
- half-life ([1]; female, human, plasma, po, 200 mg, after 200 mg oral AS, non-pregnant, read-out: DHA elimination half-life, non-pregnant subjects): 59 min
- half-life ([1]; female, human, plasma, po, 200 mg, after 200 mg oral AS, pregnant, read-out: DHA elimination half-life, pregnant subjects): 45 min
- IIV - CLM/F, variance, bootstrap mean (95% CI) ([1]; interindividual variability, 1000 bootstrap runs): 0.0711 (0.031-0.113)
- IIV - CLM/F, variance (%CV), estimate [1, 7]: 0.0802 (28.3)
- IIV - V3/F, variance (%CV), estimate [1, 7]: 0.0790 (28.1)
- PREG on CLM/F, bootstrap mean (95% CI) ([1]; pregnant vs non-pregnant women, 1000 bootstrap runs): 0.427 (0.197-0.723)
- PREG on CLM/F: factor of proportional increase in CLM/F associated with pregnancy, estimate ([1]; pregnant vs non-pregnant women, final model NONMEM estimate): 0.423
- Pregnancy-associated trend towards increased DHA volume of distribution ([1]; pregnant vs non-pregnant, significant (p < 0.05) only in first forward addition step, not retained in final model): approximately 37%
- DHA clearance in pregnant patients, estimate of the present analysis ([1]; pregnant, after 200 mg oral AS): 91 L/h
- Oral DHA clearance ([2]; oral AS 4 mg/kg/day for three days with atovaquone and proguanil, 95% CI 60 - 117 L/h): 88.5 L/h
- DHA volume of distribution ([2]; oral AS 4 mg/kg/day, 95% CI 57 - 406 L): 231.5 L
- DHA volume of distribution [3]: 1.33 L/kg
- DHA volume of distribution [4]: 1.33 L/kg

SMILES: C[C@H]1[C@H](OC(=O)CCC(=O)O)O[C@@H]2O[C@@]3(C)CC[C@H]4[C@H](C)CC[C@@H]1[C@@]24OO3 [AS, artesunate]
- IIV - V2/F, variance (%CV), estimate ([1]; female, human, in vivo): 0.604 (77.7)
- IIV - V2/F, variance, bootstrap mean (95% CI) ([1]; female, human, in vivo): 0.568 (0.253-0.942)
- half-life ([1]; female, human, in vivo, po, 200 mg, AS elimination half-life): ~9.1 min
- CL/F apparent clearance of AS, bootstrap mean (95% CI) ([1]; human, in vivo, po, 200 mg): 904 (788-1045) L/h
- CL/F: apparent clearance of AS, estimate ([1]; human, in vivo, po, 200 mg): 895 L/h
- pKa [5]: 4.6
- Solubility of the free acid form [6]: 168.2 µg/mL
